In ChEMBL document CHEMBL1201862, “PubChem BioAssay data set” (2004):
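Method: 48-hour compound exposure of cells in 96-well plates, five concentrations, linear interpolation of endpoints. GI50: concentration for 50% inhibition of growth.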 The source made the active and inactive calls. Cut-off read from the data, not from the text of the source: active = GI50 up to about 1.1 µM and inactive = higher.

Columns and labels:
Assay in all cases: NCI tumour cell line growth inhibition, 48 h
T47D = test system: T47D
PC-3 = test system: PC-3
RXF 393 = test system: RXF 393
HCT-15 = test system: HCT-15
NCI-H23 = test system: NCI-H23
OVCAR-5 = test system: OVCAR-5
LOX IMVI = test system: LOX IMVI
U-251 = test system: U-251
SK-MEL-28 = test system: SK-MEL-28
A498 = test system: A498
COLO 205 = test system: COLO 205
SNB-19 = test system: SNB-19
HL-60 = test system: HL-60
MDA-MB-231 = test system: MDA-MB-231
CCRF-CEM = test system: CCRF-CEM
MDA-N = test system: MDA-N
ACHN = test system: ACHN
BT-549 = test system: BT-549
IGROV-1 = test system: IGROV-1
OVCAR-4 = test system: OVCAR-4
EKVX = test system: EKVX
NCI-H522 = test system: NCI-H522
SNB-75 = test system: SNB-75
MOLT-4 = test system: MOLT-4
HCT-116 = test system: HCT-116
KM12 = test system: KM12
MDA-MB-435 = test system: MDA-MB-435
RPMI-8226 = test system: RPMI-8226
MCF7 = test system: MCF7
NCI/ADR-RES = test system: NCI/ADR-RES
M14 = test system: M14
SK-MEL-5 = test system: SK-MEL-5
Malme-3M = test system: Malme-3M
SF-295 = test system: SF-295
SF-539 = test system: SF-539
K562 = test system: K562
HCC 2998 = test system: HCC 2998
A549 = test system: A549
CAKI-1 = test system: CAKI-1
SW-620 = test system: SW-620
SN12C = test system: SN12C
SR = test system: SR
TK-10 = test system: TK-10
UO-31 = test system: UO-31
NCI-H460 = test system: NCI-H460
UACC-62 = test system: UACC-62
OVCAR-8 = test system: OVCAR-8
786-0 = test system: 786-0
HOP-92 = test system: HOP-92
SK-OV-3 = test system: SK-OV-3
UACC-257 = test system: UACC-257
HT-29 = test system: HT-29
NCI-H226 = test system: NCI-H226
OVCAR-3 = test system: OVCAR-3
SK-MEL-2 = test system: SK-MEL-2
HOP-62 = test system: HOP-62
DU-145 = test system: DU-145
Hs-578T = test system: Hs-578T
SF-268 = test system: SF-268

Measured: GI50

COc1cc(/C=C2\C(=O)N(c3cccc(NC(C)=O)c3)C(c3ccccc3)S2(=O)=O)cc(OC)c1OC (configuration not stated)
inactive: T47D 34.7 µM | PC-3 42.6 µM | RXF 393 > 100 µM | NCI-H23 79.4 µM | OVCAR-5 > 100 µM | LOX IMVI 54.2 µM | U-251 59.8 µM | SK-MEL-28 91.2 µM | A498 > 100 µM | COLO 205 63.1 µM | SNB-19 > 100 µM | HL-60 17.5 µM | MDA-MB-231 > 100 µM | CCRF-CEM 30.3 µM | MDA-N 40.4 µM | ACHN > 100 µM | BT-549 67.3 µM | IGROV-1 > 100 µM | OVCAR-4 70.5 µM | EKVX 74.1 µM | NCI-H522 28.4 µM | SNB-75 62.7 µM | MOLT-4 19.8 µM | HCT-116 37.8 µM | KM12 49.8 µM | MDA-MB-435 47.9 µM | RPMI-8226 40.7 µM | MCF7 31 µM | NCI/ADR-RES 94.6 µM | M14 > 100 µM | SK-MEL-5 39.1 µM | Malme-3M 93.5 µM | SF-295 50.9 µM | SF-539 48.3 µM | K562 31.3 µM | HCC 2998 > 100 µM | A549 > 100 µM | CAKI-1 > 100 µM | SW-620 56.2 µM | SN12C 67.5 µM | SR 24.9 µM | TK-10 > 100 µM | UO-31 50.5 µM | NCI-H460 67.5 µM | UACC-62 80.9 µM | OVCAR-8 48.2 µM | 786-0 88.5 µM | HOP-92 > 100 µM | SK-OV-3 > 100 µM | UACC-257 > 100 µM | HT-29 55.2 µM | NCI-H226 67.6 µM | OVCAR-3 56 µM | SK-MEL-2 > 100 µM | HOP-62 > 100 µM | DU-145 > 100 µM
71.4 µM: HCT-15

CC1CN=C(N(C(=O)Nc2ccccc2)C2CCCCC2)S1 (configuration not stated)
14.4 µM: HCT-15
inactive: T47D 17.7 µM | PC-3 15.5 µM | NCI-H23 16.4 µM | OVCAR-5 14.7 µM | LOX IMVI 13.5 µM | U-251 16.9 µM | SK-MEL-28 12.4 µM | A498 14.4 µM | COLO 205 19 µM | SNB-19 29.2 µM | HL-60 14.8 µM | Hs-578T 20.7 µM | MDA-MB-231 15.4 µM | CCRF-CEM 20.7 µM | MDA-N 15.6 µM | ACHN 13.5 µM | IGROV-1 17.8 µM | SF-268 17.6 µM | OVCAR-4 14.5 µM | EKVX 15.7 µM | SNB-75 12.6 µM | MOLT-4 16.7 µM | HCT-116 16.7 µM | KM12 16.1 µM | RPMI-8226 18.8 µM | MCF7 16.6 µM | NCI/ADR-RES 14.5 µM | SK-MEL-5 15.1 µM | Malme-3M 16.3 µM | SF-295 16.7 µM | SF-539 22.4 µM | K562 22.5 µM | HCC 2998 18.3 µM | A549 16.7 µM | CAKI-1 12.4 µM | SW-620 14.1 µM | SN12C 16.6 µM | SR 15.9 µM | TK-10 16.7 µM | UO-31 17.3 µM | NCI-H460 16.6 µM | OVCAR-8 25.9 µM | 786-0 17.3 µM | SK-OV-3 31.3 µM | UACC-257 16 µM | HT-29 17 µM | OVCAR-3 17.7 µM | SK-MEL-2 15.2 µM | HOP-62 41.2 µM | DU-145 25.5 µM

C/C(Nc1ccc(Cl)cc1Cl)=C1/CCOC1=O
> 100 µM: HCT-15
inactive: T47D 46.5 µM | PC-3 > 100 µM | RXF 393 13.5 µM | NCI-H23 59.3 µM | LOX IMVI > 100 µM | U-251 27.2 µM | SK-MEL-28 > 100 µM | A498 59.8 µM | COLO 205 > 100 µM | SNB-19 26.2 µM | HL-60 56.5 µM | Hs-578T 33.6 µM | MDA-MB-231 19.9 µM | CCRF-CEM 25.3 µM | ACHN 92.9 µM | BT-549 24.1 µM | IGROV-1 > 100 µM | SF-268 30.8 µM | OVCAR-4 > 100 µM | EKVX 10.4 µM | NCI-H522 86.5 µM | SNB-75 36.9 µM | MOLT-4 87.3 µM | HCT-116 > 100 µM | KM12 > 100 µM | MDA-MB-435 > 100 µM | RPMI-8226 > 100 µM | MCF7 > 100 µM | NCI/ADR-RES 77.6 µM | SK-MEL-5 > 100 µM | Malme-3M > 100 µM | SF-295 26.6 µM | SF-539 25.7 µM | K562 > 100 µM | HCC 2998 > 100 µM | A549 78.7 µM | SW-620 > 100 µM | SN12C 41.5 µM | SR > 100 µM | TK-10 56.4 µM | UO-31 40.8 µM | NCI-H460 89.5 µM | UACC-62 63.7 µM | OVCAR-8 48.3 µM | 786-0 40.4 µM | HOP-92 22.8 µM | UACC-257 > 100 µM | HT-29 > 100 µM | NCI-H226 > 100 µM | OVCAR-3 > 100 µM | HOP-62 27 µM | DU-145 > 100 µM

CON(C)C(=O)C1CCCO1 (configuration not stated)
inactive: T47D > 100 µM | PC-3 > 100 µM | NCI-H23 18.5 µM | OVCAR-5 > 100 µM | LOX IMVI > 100 µM | U-251 > 100 µM | SK-MEL-28 > 100 µM | A498 > 100 µM | COLO 205 > 100 µM | SNB-19 > 100 µM | HL-60 34.5 µM | Hs-578T > 100 µM | MDA-MB-231 > 100 µM | CCRF-CEM > 100 µM | MDA-N > 100 µM | ACHN > 100 µM | IGROV-1 > 100 µM | SF-268 > 100 µM | OVCAR-4 > 100 µM | EKVX 39.5 µM | NCI-H522 > 100 µM | SNB-75 > 100 µM | MOLT-4 > 100 µM | HCT-116 > 100 µM | KM12 > 100 µM | MDA-MB-435 > 100 µM | RPMI-8226 68.7 µM | MCF7 > 100 µM | NCI/ADR-RES > 100 µM | M14 > 100 µM | SK-MEL-5 67 µM | SF-295 > 100 µM | SF-539 > 100 µM | K562 > 100 µM | A549 > 100 µM | CAKI-1 > 100 µM | SW-620 > 100 µM | SN12C > 100 µM | SR > 100 µM | TK-10 > 100 µM | UO-31 > 100 µM | NCI-H460 > 100 µM | UACC-62 > 100 µM | OVCAR-8 > 100 µM | 786-0 > 100 µM | HOP-92 > 100 µM | SK-OV-3 > 100 µM | UACC-257 57.5 µM | HT-29 > 100 µM | NCI-H226 > 100 µM | OVCAR-3 > 100 µM | SK-MEL-2 > 100 µM | HOP-62 > 100 µM | DU-145 > 100 µM
> 100 µM: HCT-15

CCN(CCCl)c1cc(CN(C)C)cc(NC(=O)c2ccc(C(=O)Nc3cccc(N(CCCl)NN)c3)cc2)c1
inactive: NCI/ADR-RES 1.97 µM
0.455 µM: HCT-15
active: T47D 0.0612 µM | PC-3 0.0142 µM | RXF 393 0.0285 µM | NCI-H23 0.0242 µM | OVCAR-5 0.182 µM | LOX IMVI < 0.01 µM | U-251 0.0101 µM | SK-MEL-28 0.192 µM | A498 0.197 µM | COLO 205 0.0635 µM | SNB-19 < 0.01 µM | HL-60 < 0.01 µM | Hs-578T 0.0186 µM | MDA-MB-231 0.185 µM | CCRF-CEM < 0.01 µM | MDA-N 0.0301 µM | ACHN < 0.01 µM | IGROV-1 0.0225 µM | SF-268 0.0129 µM | OVCAR-4 0.0136 µM | NCI-H522 < 0.01 µM | SNB-75 0.0336 µM | MOLT-4 < 0.01 µM | HCT-116 0.0277 µM | KM12 0.123 µM | MDA-MB-435 0.016 µM | RPMI-8226 0.0492 µM | MCF7 < 0.01 µM | M14 0.0224 µM | SK-MEL-5 0.0461 µM | Malme-3M 0.0224 µM | SF-295 0.0428 µM | SF-539 0.16 µM | K562 0.014 µM | HCC 2998 0.0546 µM | A549 0.0209 µM | CAKI-1 0.0168 µM | SW-620 < 0.01 µM | SN12C 0.0332 µM | SR < 0.01 µM | TK-10 0.296 µM | UO-31 0.462 µM | NCI-H460 < 0.01 µM | UACC-62 < 0.01 µM | OVCAR-8 0.0246 µM | 786-0 < 0.01 µM | HOP-92 0.0789 µM | SK-OV-3 0.116 µM | UACC-257 0.174 µM | HT-29 0.0154 µM | NCI-H226 0.145 µM | SK-MEL-2 0.0521 µM | HOP-62 0.0453 µM | DU-145 0.0234 µM
